Earlier results in patent US20130039995A1, “DERMATOLOGICAL COMPOSITIONS COMPRISING AT LEAST ONE REINOID COMPOUND, AN ANTI-IRRITANT COMPOUND AND BENZOYL PEROXIDE” (Galderma Research & Development, priority 2007, published 2013).

For `O=C(OOC(=O)c1ccccc1)c1ccccc1` [benzoyl peroxide], the “degradation of benzoyl peroxide in solution” value (in solution in ethanol, propylene glycol and mixtures of PEG 400 and water, depends on type of solvent and its concentration) is given as “degrades more or less rapidly” and the “degradation of benzoyl peroxide in suspension on storage” value (in suspension (disperse form) in water and in propylene glycol, after 90 days of storage) is given as “not degraded”.
